pIC50: −log10 of the molar value. Several values for one entry are separate records, joined by “and”; a condition that tells them apart may be missing. Equal entries are not always repeated.
System: DMS-114 complex spheroids with HUVEC/MSC, growth % test/control
Assay: Anticancer human tumor DMS-114 cell line growth inhibition [AhR];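 also: spheroids exposed to agents for 7 days before readout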;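 as to viability, T/C: 100% = DMSO vehicle control wells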
Conditions: for viability, T/C: stronger effect = lower value
Excerpt: Multicellular complex tumor spheroid response to aryl hydrocarbon receptor antagonists in combination with a variety of drugs and investigational agents in selected tumor cell lines
The current study was undertaken to assess response to aryl hydrocarbon receptor antagonists in combination with standard-of-care drugs and investigational agents in solid tumor complex spheroid models. Complex spheroids include a stromal component modeled by human endothelial cells (HUVEC) and fibroblasts modeled by human mesenchymal stem cells (MSCs). The concentration ranges selected for each drug and investigational agent were based upon clinically achievable concentrations if the clinical Cmax of the agent was known.
Compounds. The drugs and investigational agents: BAY 2416964 (NSC825713), GNF351 (NSC835774), CH-223191 (NSC835775), CPI-455 (NSC825282), aza-TdCyd (NSC777586), decitabine (NSC127716), belinostat (NSC758774), entinostat (NSC756642), pevonedistat (NSC761192), tazemetostat (NSC777109), talazoparib (NSC765396), olaparib (NSC753686), selinexor (NSC780203), nedisertib (M3814, NSC802822), bortezomib (NSC756655), venetoclax (NSC766270), doxorubicin (NSC123127), elimusertib (BAY189344, NSC800525), ceralasertib (AZD6738, NSC777638), TAK-243 (NSC785004), alisertib (NSC759677), etoposide (NSC141540), topotecan (NSC609699), eribulin (NSC707389), gemcitabine (NSC613327), carboplatin (NSC241240), cisplatin (NSC119875), and SN-38 (NSC673596) were obtained from the National Cancer Institute (NCI) Developmental Therapeutics Program Chemical Repository (32). The FDA-approved anticancer drug set is available from the Developmental Therapeutics Program at https://dtp.cancer.gov/organization/dscb/obtaining/available plates.htm. […] The stock solutions were prepared in dimethyl sulfoxide (DMSO, Sigma-Aldrich, St. Louis, MO, cat. D2650), except for the platinum compounds which were prepared in saline (Quality Biological, Gaithersburg, MD, cat. 114-055-101), at 800-fold the tested concentration and stored at -70 degrees C prior to their use. All drugs and investigational agents were tested over a range starting from a high concentration at or near the clinical Cmax and decreasing in half-log increments. If the clinical Cmax for an agent had not been determined, the highest concentration tested was 10 microM (Table 1).
Cell Culture. All cells were maintained in an incubator at 37 degrees C and 5% CO2 with 95% humidity. The PDC lines were cultured according to standard operating procedures established by the NCI PDMR (https://pdmr.cancer.gov). Briefly, all PDCs were thawed and cultured in Matrigel-coated flasks prepared with a working solution of 1X Ham's F-12 nutrient mix, without supplementation (Invitrogen, Waltham, MA, cat. 11765054), 100 U/mL penicillin-streptomycin (Invitrogen, cat. 15140122), and 2.5% Matrigel (Corning Inc., Corning, NY, cat. 354248) for the first three passages. All PDCs were cultured in complete DMEM/F-12 media containing advanced DMEM/F-12 (Invitrogen, cat. 12634028), 4.9% defined fetal bovine serum, heat inactivated (HyClone Laboratories Inc., Logan, UT, cat. SH30070.03HI), 389 ng/mL hydrocortisone (Sigma-Aldrich, cat. H4001), 9.7 ng/mL human EGF recombinant protein (Invitrogen, cat. PHG0313), 23.4 microg/mL adenine (Sigma-Aldrich, cat. A2786), 97.3 U/mL penicillin-streptomycin (Invitrogen, cat. 15140122), 1.9 mM L-glutamine (Invitrogen, cat. 25030081), and 9.7 microM Y-27632 dihydrochloride (Tocris Bioscience, Bristol, United Kingdom, cat. 1254). The PDCs were cultured in complete DMEM/F12 media without 10 microM Y-27632 dihydrochloride for at least two passages prior to the screen. The established cell lines NCI-H1341 and […] were cultured in DMEM/F-12, HEPES (Invitrogen, cat. 11330032), 5% defined fetal bovine serum (HyClone Laboratories Inc., cat. SH30070.03), ITS premix universal culture supplement [insulin (5 microg/mL), transferrin (5 microg/mL), and selenious acid (5 ng/mL)] […]

[1] = curve of first compound, second compound 0.1 µM
[2] = curve of first compound, second compound 0.316 µM
[3] = curve of first compound, second compound 1 µM
[4] = curve of first compound, second compound 3.16 µM
[5] = curve of first compound, second compound 10 µM
[6] = second compound 0.1 µM, first compound 0.00316 µM
[7] = second compound 0.1 µM, first compound 0.01 µM
[8] = second compound 0.1 µM, first compound 0.0316 µM
[9] = second compound 0.1 µM, first compound 0.1 µM
[10] = second compound 0.1 µM, first compound 0.316 µM
[11] = second compound 0.1 µM, first compound 1 µM
[12] = second compound 0.316 µM, first compound 0.00316 µM
[13] = second compound 0.316 µM, first compound 0.01 µM
[14] = second compound 0.316 µM, first compound 0.0316 µM
[15] = second compound 0.316 µM, first compound 0.1 µM
[16] = second compound 0.316 µM, first compound 0.316 µM
[17] = second compound 0.316 µM, first compound 1 µM
[18] = second compound 1 µM, first compound 0.00316 µM
[19] = second compound 1 µM, first compound 0.01 µM
[20] = second compound 1 µM, first compound 0.0316 µM
[21] = second compound 1 µM, first compound 0.1 µM
[22] = second compound 1 µM, first compound 0.316 µM
[23] = second compound 1 µM, first compound 1 µM
[24] = second compound 3.16 µM, first compound 0.00316 µM
[25] = second compound 3.16 µM, first compound 0.01 µM
[26] = second compound 3.16 µM, first compound 0.0316 µM
[27] = second compound 3.16 µM, first compound 0.1 µM
[28] = second compound 3.16 µM, first compound 0.316 µM
[29] = second compound 3.16 µM, first compound 1 µM
[30] = second compound 10 µM, first compound 0.00316 µM
[31] = second compound 10 µM, first compound 0.01 µM
[32] = second compound 10 µM, first compound 0.0316 µM
[33] = second compound 10 µM, first compound 0.1 µM
[34] = second compound 10 µM, first compound 0.316 µM
[35] = second compound 10 µM, first compound 1 µM

Which results are given for CC1COCCN1c1cc(-c2ccnn2C)c2ccnc(-c3ccn[nH]3)c2n1 (configuration not stated) + CC(CO)NC(=O)c1cc(-c2ccc(Cl)cc2)nn(-c2cnn(C)c2)c1=O?
pIC50 [1]: 7.29; pIC50 [2]: 7.19; pIC50 [3]: 7.47; pIC50 [4]: 7.47; pIC50 [5]: 7.68; viability, T/C [6]: 90.1%; viability, T/C [7]: 82%; viability, T/C [8]: 59.1%; viability, T/C [9]: 34.4%; viability, T/C [10]: 27.9%; viability, T/C [11]: 15.8%; viability, T/C [12]: 93%; viability, T/C [13]: 89.1%; viability, T/C [14]: 60.1%; viability, T/C [15]: 42.7%; viability, T/C [16]: 26.2%; viability, T/C [17]: 15.2%; viability, T/C [18]: 85.3%; viability, T/C [19]: 94.4%; viability, T/C [20]: 51.8%; viability, T/C [21]: 34.4%; viability, T/C [22]: 27.6%; viability, T/C [23]: 14.6%; viability, T/C [24]: 84.8%; viability, T/C [25]: 73.7%; viability, T/C [26]: 49.4%; viability, T/C [27]: 31.6%; viability, T/C [28]: 22.3%; viability, T/C [29]: 13.9%; viability, T/C [30]: 86.8%; viability, T/C [31]: 63.2%; viability, T/C [32]: 42.2%; viability, T/C [33]: 29.6%; viability, T/C [34]: 24.1%; viability, T/C [35]: 14.8%

With COc1cc(Nc2ncc3c(n2)-c2ccc(Cl)cc2C(c2c(F)cccc2OC)=NC3)ccc1C(=O)O + Cc1cncc(-c2nc(NCCc3c[nH]c4ccccc34)c3ncn(C(C)C)c3n2)c1 as the compound, how does the pIC50 [1] read?
The pIC50 was > 7.50.

And the pIC50 [2]?
The pIC50 was > 7.50.

What about the pIC50 [3] of the same compound?
The pIC50 was > 7.50.

And the pIC50 [4]?
Its pIC50 is > 7.50.

What about the pIC50 [5] of the same compound?
The pIC50 was > 7.50.

And the viability, T/C [8]?
Its viability, T/C is 34.3%.

And the viability, T/C [9]?
The viability, T/C was 23.1%.

And the viability, T/C [10]?
Its viability, T/C is 44.3%.

What about the viability, T/C [11] of the same compound?
The viability, T/C was 53.2%.

What about the viability, T/C (second compound 0.1 µM, first compound 3.16 µM) of the same compound?
Its viability, T/C is 65.4%.

What about the viability, T/C (second compound 0.1 µM, first compound 10 µM) of the same compound?
Its viability, T/C is 72.5%.

And the viability, T/C [14]?
Its viability, T/C is 28.4%.

What about the viability, T/C [15] of the same compound?
The viability, T/C was 22.3%.

And the viability, T/C [16]?
Its viability, T/C is 40.9%.

And the viability, T/C [17]?
Its viability, T/C is 62.1%.

What about the viability, T/C (second compound 0.316 µM, first compound 3.16 µM) of the same compound?
The viability, T/C was 61.6%.

What about the viability, T/C (second compound 0.316 µM, first compound 10 µM) of the same compound?
The viability, T/C was 64.6%.

What about the viability, T/C [20] of the same compound?
The viability, T/C was 30.1%.

And the viability, T/C [21]?
The viability, T/C was 21.3%.

What about the viability, T/C [22] of the same compound?
Its viability, T/C is 41.7%.

What about the viability, T/C [23] of the same compound?
The viability, T/C was 66%.

And the viability, T/C (second compound 1 µM, first compound 3.16 µM)?
The viability, T/C was 61.7%.

And the viability, T/C (second compound 1 µM, first compound 10 µM)?
Its viability, T/C is 70.5%.

What about the viability, T/C [26] of the same compound?
Its viability, T/C is 24.5%.

What about the viability, T/C [27] of the same compound?
The viability, T/C was 14.9%.

What about the viability, T/C [28] of the same compound?
Its viability, T/C is 36.3%.

And the viability, T/C [29]?
The viability, T/C was 57.2%.

And the viability, T/C (second compound 3.16 µM, first compound 3.16 µM)?
Its viability, T/C is 69.8%.

And the viability, T/C (second compound 3.16 µM, first compound 10 µM)?
The viability, T/C was 63%.

What about the viability, T/C [32] of the same compound?
Its viability, T/C is 16.4%.

And the viability, T/C [33]?
Its viability, T/C is 8.12%.

And the viability, T/C [34]?
Its viability, T/C is 19%.

And the viability, T/C [35]?
The viability, T/C was 34.3%.

And the viability, T/C (second compound 10 µM, first compound 3.16 µM)?
Its viability, T/C is 32.4%.

What about the viability, T/C (second compound 10 µM, first compound 10 µM) of the same compound?
Its viability, T/C is 38.4%.

Which results are given for Cn1ncnc1C1c2n[nH]c(=O)c3cc(F)cc(c23)NC1c1ccc(F)cc1 (configuration not stated) + CC(CO)NC(=O)c1cc(-c2ccc(Cl)cc2)nn(-c2cnn(C)c2)c1=O?
pIC50 [1]: < 7.00; pIC50 [2]: < 7.00; pIC50 [3]: < 7.00; pIC50 [4]: < 7.00; pIC50 [5]: < 7.00; viability, T/C (second compound 0.1 µM, first compound 0.000316 µM): 103%; viability, T/C (second compound 0.1 µM, first compound 0.001 µM): 95%; viability, T/C [6]: 101%; viability, T/C [7]: 102%; viability, T/C [8]: 97.2%; viability, T/C [9]: 82%; viability, T/C (second compound 0.316 µM, first compound 0.000316 µM): 105%; viability, T/C (second compound 0.316 µM, first compound 0.001 µM): 95.5%; viability, T/C [12]: 103%; viability, T/C [13]: 84.7%; viability, T/C [14]: 82%; viability, T/C [15]: 84.1%; viability, T/C (second compound 1 µM, first compound 0.000316 µM): 103%; viability, T/C (second compound 1 µM, first compound 0.001 µM): 116%; viability, T/C [18]: 109%; viability, T/C [19]: 92.1%; viability, T/C [20]: 84%; viability, T/C [21]: 101%; viability, T/C (second compound 3.16 µM, first compound 0.000316 µM): 107%; viability, T/C (second compound 3.16 µM, first compound 0.001 µM): 105%; viability, T/C [24]: 109%; viability, T/C [25]: 96.4%; viability, T/C [26]: 94.8%; viability, T/C [27]: 85.7%; viability, T/C (second compound 10 µM, first compound 0.000316 µM): 94.3%; viability, T/C (second compound 10 µM, first compound 0.001 µM): 106%; viability, T/C [30]: 104%; viability, T/C [31]: 98.8%; viability, T/C [32]: 78.1%; viability, T/C [33]: 72.2%

With COc1cc(C2c3cc4c(cc3C(OC3OC5COC(C)OC5C(O)C3O)C3COC(=O)C23)OCO4)cc(OC)c1O (configuration not stated) as the compound, how does the viability, T/C (compound 0.0316 µM) read?
The viability, T/C was 96.4% and 99.5% and 94.3%.

And the viability, T/C (compound 0.1 µM)?
The viability, T/C was 85.2% and 85.9% and 99%.

And the viability, T/C (compound 0.316 µM)?
The viability, T/C was 57.3% and 77% and 89.2%.

What about the viability, T/C (compound 1 µM) of the same compound?
The viability, T/C was 23.7% and 34.1% and 60.9%.

What about the viability, T/C (compound 3.16 µM) of the same compound?
The viability, T/C was 16.9% and 30.2% and 40.8%.

What about the viability, T/C (compound 10 µM) of the same compound?
Its viability, T/C is 9.04% and 15.1% and 30.3%.

And the pIC50 (curve of compound)?
Its pIC50 is 6.40 and 6.17 and 5.74.
